Consider one compound from US20100305204A1, “COMPOSITION USEFUL FOR THE PREVENTION OF ADVERSE EFFECT DUE TO THE USE OF PPAR-GAMMA AGONISTS” (SIGMA-TAU INDUSTRIE FARMACEUTICHE RIUNITE S.P.A., priority 2007, published 2010).

“And” between values parts separate entries of the source, which are not always exact repeats. Equal values may be shown once.

One data set deals with osteocalcine. The experiment in a line: Serum levels of osteocalcine in rosiglitazone-treated patients affected by osteoporosis.
Data set [1] can be described thus: Body weight (BW) of the patients.
In a further data set the test system is IGF1. The experiment in a line: Serum levels of IGF1 in rosiglitazone-treated patients affected by osteoporosis.
[2] abbreviates: T1 versus T0, a month of wash-out, 6 patients.
Where [3] appears, read: after 1-month rosiglitazone wash-out (T1), patients 1-6 individually and mean.
The mark [4] stands for this setting: after treatment with rosiglitazone 8 mg/day orally for 12 months (T0), patients 1-6 individually and mean.

On to `CN(CCOc1ccc(CC2SC(=O)NC2=O)cc1)c1ccccn1` (stereo not drawn) [rosiglitazone], for which the “Change of serum osteocalcine after wash-out” value with osteocalcine (setting [2]) is reported as “lightly incremented even if not significantly”. Besides, the “Serum level of osteocalcine, T1” value in the data set on osteocalcine (setting [3]) was 0.0028 pg/mL and 0.0029 pg/mL and 0.003 pg/mL and 0.0027 pg/mL and 0.0026 pg/mL. Also, the “Serum level of osteocalcine, T0” value in the data set on osteocalcine (setting [4]) was 0.0027 pg/mL and 0.003 pg/mL and 0.0031 pg/mL and 0.0023 pg/mL and 0.0022 pg/mL and 0.0026 pg/mL. Moreover, in data set [1] (setting [2]), the “Change of body weight (BW) after wash-out” value is “didn't demonstrate variations”. The “BW Body weight, T1” value in data set [1] (setting [3]) is 98.9 and 102 and 109 and 94.6 and 96.8 and 97. Also, in data set [1] (setting [4]), the “BW Body weight, T0” value was 99 and 102.5 and 108.9 and 94.5 and 97.3 and 97.2. The “Change of Total Body Water after wash-out” value under setting [2] was “didn't demonstrate variations”. In addition, the “TBW Total Body Water, T1” value under setting [3] is 50 and 50.2 and 53.5 and 48 and 50.8 and 49.9. The “TBW Total Body Water, T0” value under setting [4] is 50.1 and 50.3 and 53.6 and 48 and 50.9 and 49.8. Besides, the “Change of serum IGF1 after wash-out” value in the data set with IGF1 (setting [2]) was “lightly incremented even if not significantly”. Moreover, the “Serum level of IGF1, T1” value in the data set with IGF1 (setting [3]) is 310000 pg/mL and 375000 pg/mL and 300000 pg/mL and 380000 pg/mL and 280000 pg/mL and 265000 pg/mL. Moreover, the “Serum level of IGF1, T0” value with IGF1 (setting [4]) is 300 ng/ml and 235 ng/ml and 260 ng/ml (2×) and 330 ng/ml and 270 ng/ml.
